Numbers after ± are expanded uncertainties.
Experiment: molar heat capacity at constant pressure
Details: 101.33 kPa, Liquid

CCCCCC[n+]1ccn(C)c1.O=S(=O)([N-]S(=O)(=O)C(F)(F)F)C(F)(F)F
Details	molar heat capacity at constant pressure [J/K/mol]
318.17 K, Large sample (1 g) DSC	668 ± 35
320.15 K, Small sample (50 mg) DSC	672 ± 35
323.13 K, Large sample (1 g) DSC	672 ± 35
323.15 K, modulated-temperature differential scanning calorimetry MDSC	680 ± 34
325.15 K, Small sample (50 mg) DSC	675 ± 35
328.14 K, Large sample (1 g) DSC	673 ± 35
328.15 K, modulated-temperature differential scanning calorimetry MDSC	682 ± 34
330.15 K, Small sample (50 mg) DSC	679 ± 35
333.15 K, modulated-temperature differential scanning calorimetry MDSC	685 ± 34
333.16 K, Large sample (1 g) DSC	673 ± 35
335.15 K, Small sample (50 mg) DSC	681 ± 35
338.15 K, modulated-temperature differential scanning calorimetry MDSC	688 ± 34
338.16 K, Large sample (1 g) DSC	675 ± 35
340.15 K, Small sample (50 mg) DSC	684 ± 36
343.15 K, modulated-temperature differential scanning calorimetry MDSC	689 ± 34
343.17 K, Large sample (1 g) DSC	676 ± 35
345.15 K, Small sample (50 mg) DSC	686 ± 36
348.15 K, modulated-temperature differential scanning calorimetry MDSC	693 ± 35
348.18 K, Large sample (1 g) DSC	677 ± 35
350.15 K, Small sample (50 mg) DSC	688 ± 36
353.13 K, Large sample (1 g) DSC	680 ± 35
353.15 K, modulated-temperature differential scanning calorimetry MDSC	695 ± 35
355.15 K, Small sample (50 mg) DSC	691 ± 36
358.12 K, Large sample (1 g) DSC	682 ± 35
358.15 K, modulated-temperature differential scanning calorimetry MDSC	698 ± 35
360.15 K, Small sample (50 mg) DSC	693 ± 36
363.15 K, modulated-temperature differential scanning calorimetry MDSC	701 ± 35
363.16 K, Large sample (1 g) DSC	686 ± 36
365.15 K, Small sample (50 mg) DSC	696 ± 36
368.15 K, modulated-temperature differential scanning calorimetry MDSC	705 ± 35
368.18 K, Large sample (1 g) DSC	689 ± 36
370.15 K, Small sample (50 mg) DSC	700 ± 36
373.13 K, Large sample (1 g) DSC	691 ± 36
373.15 K, modulated-temperature differential scanning calorimetry MDSC	706 ± 35
375.15 K, Small sample (50 mg) DSC	703 ± 37
378.13 K, Large sample (1 g) DSC	694 ± 36
378.15 K, modulated-temperature differential scanning calorimetry MDSC	709 ± 35
380.15 K, Small sample (50 mg) DSC	706 ± 37
383.15 K, modulated-temperature differential scanning calorimetry MDSC	711 ± 36
383.17 K, Large sample (1 g) DSC	697 ± 36
385.15 K, Small sample (50 mg) DSC	709 ± 37
388.15 K, modulated-temperature differential scanning calorimetry MDSC	714 ± 36
388.16 K, Large sample (1 g) DSC	698 ± 36
390.15 K, Small sample (50 mg) DSC	713 ± 37
393.14 K, Large sample (1 g) DSC	703 ± 37
393.15 K, modulated-temperature differential scanning calorimetry MDSC	716 ± 36
395.15 K, Small sample (50 mg) DSC	716 ± 37
398.15 K, modulated-temperature differential scanning calorimetry MDSC	718 ± 36
398.18 K, Large sample (1 g) DSC	706 ± 37
400.15 K, Small sample (50 mg) DSC	720 ± 37
403.15 K, modulated-temperature differential scanning calorimetry MDSC	720 ± 36
403.16 K, Large sample (1 g) DSC	709 ± 37
405.15 K, Small sample (50 mg) DSC	725 ± 38
408.13 K, Large sample (1 g) DSC	712 ± 37
408.15 K, modulated-temperature differential scanning calorimetry MDSC	723 ± 36
410.15 K, Small sample (50 mg) DSC	728 ± 38
413.15 K, modulated-temperature differential scanning calorimetry MDSC	723 ± 36
413.16 K, Large sample (1 g) DSC	716 ± 37
415.15 K, Small sample (50 mg) DSC	732 ± 38
418.13 K, Large sample (1 g) DSC	719 ± 37
420.15 K, Small sample (50 mg) DSC	736 ± 38
425.15 K, Small sample (50 mg) DSC	739 ± 38

CCn1cc[n+](C)c1.O=S(=O)([O-])C(F)(F)F [1-ethyl-3-methylimidazolium trifluoromethanesulfonate]
Details	molar heat capacity at constant pressure [J/K/mol]
313.13 K, Large sample (1 g) DSC	384 ± 20
315.15 K, Small sample (50 mg) DSC	386 ± 20
318.13 K, Large sample (1 g) DSC	385 ± 20
320.15 K, Small sample (50 mg) DSC	388 ± 20
323.12 K, Large sample (1 g) DSC	386 ± 20
325.15 K, Small sample (50 mg) DSC	390 ± 20
328.15 K, modulated-temperature differential scanning calorimetry MDSC	392 ± 20
328.16 K, Large sample (1 g) DSC	384 ± 20
330.15 K, Small sample (50 mg) DSC	392 ± 20
333.14 K, Large sample (1 g) DSC	383 ± 20
333.15 K, modulated-temperature differential scanning calorimetry MDSC	395 ± 20
335.15 K, Small sample (50 mg) DSC	394 ± 20
338.15 K, modulated-temperature differential scanning calorimetry MDSC	397 ± 20
338.17 K, Large sample (1 g) DSC	387 ± 20
340.15 K, Small sample (50 mg) DSC	395 ± 21
343.15 K, modulated-temperature differential scanning calorimetry MDSC	398 ± 20
343.17 K, Large sample (1 g) DSC	391 ± 20
345.15 K, Small sample (50 mg) DSC	396 ± 21
348.13 K, Large sample (1 g) DSC	392 ± 20
348.15 K, modulated-temperature differential scanning calorimetry MDSC	400 ± 20
350.15 K, Small sample (50 mg) DSC	397 ± 21
353.15 K, modulated-temperature differential scanning calorimetry MDSC	402 ± 20
353.16 K, Large sample (1 g) DSC	393 ± 20
355.15 K, Small sample (50 mg) DSC	399 ± 21
358.12 K, Large sample (1 g) DSC	395 ± 21
358.15 K, modulated-temperature differential scanning calorimetry MDSC	404 ± 20
360.15 K, Small sample (50 mg) DSC	401 ± 21
363.14 K, Large sample (1 g) DSC	398 ± 21
363.15 K, modulated-temperature differential scanning calorimetry MDSC	405 ± 20
365.15 K, Small sample (50 mg) DSC	403 ± 21
368.14 K, Large sample (1 g) DSC	400 ± 21
368.15 K, modulated-temperature differential scanning calorimetry MDSC	408 ± 20
370.15 K, Small sample (50 mg) DSC	405 ± 21
373.14 K, Large sample (1 g) DSC	401 ± 21
373.15 K, modulated-temperature differential scanning calorimetry MDSC	409 ± 20
375.15 K, Small sample (50 mg) DSC	406 ± 21
378.13 K, Large sample (1 g) DSC	402 ± 21
378.15 K, modulated-temperature differential scanning calorimetry MDSC	411 ± 21
380.15 K, Small sample (50 mg) DSC	409 ± 21
383.15 K, modulated-temperature differential scanning calorimetry MDSC	412 ± 21
383.17 K, Large sample (1 g) DSC	405 ± 21
385.15 K, Small sample (50 mg) DSC	410 ± 21
388.15 K, Large sample (1 g) DSC	407 ± 21
388.15 K, modulated-temperature differential scanning calorimetry MDSC	414 ± 21
390.15 K, Small sample (50 mg) DSC	412 ± 21
393.14 K, Large sample (1 g) DSC	410 ± 21
393.15 K, modulated-temperature differential scanning calorimetry MDSC	416 ± 21
395.15 K, Small sample (50 mg) DSC	414 ± 22
398.15 K, modulated-temperature differential scanning calorimetry MDSC	416 ± 21
398.17 K, Large sample (1 g) DSC	411 ± 21
400.15 K, Small sample (50 mg) DSC	416 ± 22
403.15 K, Large sample (1 g) DSC	414 ± 22
403.15 K, modulated-temperature differential scanning calorimetry MDSC	418 ± 21
405.15 K, Small sample (50 mg) DSC	418 ± 22
408.12 K, Large sample (1 g) DSC	416 ± 22
408.15 K, modulated-temperature differential scanning calorimetry MDSC	419 ± 21
410.15 K, Small sample (50 mg) DSC	420 ± 22
413.15 K, Large sample (1 g) DSC	419 ± 22
413.15 K, modulated-temperature differential scanning calorimetry MDSC	421 ± 21
415.15 K, Small sample (50 mg) DSC	422 ± 22
418.17 K, Large sample (1 g) DSC	421 ± 22
420.15 K, Small sample (50 mg) DSC	424 ± 22
423.14 K, Large sample (1 g) DSC	422 ± 22
425.15 K, Small sample (50 mg) DSC	425 ± 22

Reference: the NIST ThermoML archive (doi:10.1016/j.fluid.2006.03.015)
